Earlier results, collected in US8247571B2, “Pyridinium and thiazolium conjugates including polyethylene glycols and methods of using the same” (Mycosol, Inc., priority 2005, dated 2012).

System: roundworms, threadworms, and whipworms
Conditions: reported; U.S. Pat. Nos. 3,075,975 and 3,085,935

CC[n+]1c(/C=C/c2ccc(N3CCCC3)cc2)cccc1/C=C/c1ccc(N2CCCC2)cc1.[I-] [Stilbazium iodide]
anthelmintic effectiveness: effective
